From article PMC6193737, “Ligand binding properties of two Brugia malayi fatty acid and retinol (FAR) binding proteins and their vaccine efficacies against challenge infection in gerbils” (PLoS Neglected Tropical Diseases, 2018)

Key:
Format in all cases: binding
[1] = target: T1, rOv-FAR-1 (Onchocerca volvulus, UniProt Q25619); experiment: fluorescence emission enhancement and blue shift; details: PBS pH 7.2; DAUDA ~1 uM; excitation 345 nm; fluorophore-tagged fatty acid
T1 construct: recombinant from E. coli, produced by procedures similar to rBm-FAR-2 (His tag, IMAC, signal peptide removed)

[2] = target: T2, rBm-FAR-1 (Brugia malayi, UniProt A0A0K0J905); experiment: fluorescence emission enhancement and blue shift; details: PBS pH 7.2; DAUDA ~1 uM; excitation 345 nm; fluorophore-tagged fatty acid
T2 construct: gene bma-far-1; signal peptide removed; C-terminal 6His tag; secreted from Pichia (PichiaPink strain 4, pPinkalpha-HC, codon optimised); IMAC; ~19 kDa

[3] = target: T3, rOv-FAR-2 (Onchocerca volvulus, UniProt C7DRP3); experiment: fluorescence emission enhancement; details: PBS pH 7.2
T3 construct: recombinant from E. coli, produced by procedures similar to rBm-FAR-2 (His tag, IMAC, signal peptide removed)

[4] = target: T2, rBm-FAR-1; experiment: fluorescence emission enhancement; details: PBS pH 7.2
[5] = target: T1, rOv-FAR-1; experiment: fluorescence emission enhancement; details: PBS pH 7.2
[6] = retinol ~4 uM, excitation 350 nm

T2 sequence (A0A0K0J905 entry or part of it): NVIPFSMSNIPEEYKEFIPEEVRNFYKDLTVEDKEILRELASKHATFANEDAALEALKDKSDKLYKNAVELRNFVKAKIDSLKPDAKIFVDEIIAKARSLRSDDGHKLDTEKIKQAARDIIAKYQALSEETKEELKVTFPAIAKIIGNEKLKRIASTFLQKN
T1 sequence (Q25619 17-178): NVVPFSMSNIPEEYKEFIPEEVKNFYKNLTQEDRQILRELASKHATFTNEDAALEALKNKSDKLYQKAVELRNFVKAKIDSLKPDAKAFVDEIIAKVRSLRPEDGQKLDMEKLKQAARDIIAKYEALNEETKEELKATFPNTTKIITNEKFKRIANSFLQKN
T3 sequence (C7DRP3 entry or part of it): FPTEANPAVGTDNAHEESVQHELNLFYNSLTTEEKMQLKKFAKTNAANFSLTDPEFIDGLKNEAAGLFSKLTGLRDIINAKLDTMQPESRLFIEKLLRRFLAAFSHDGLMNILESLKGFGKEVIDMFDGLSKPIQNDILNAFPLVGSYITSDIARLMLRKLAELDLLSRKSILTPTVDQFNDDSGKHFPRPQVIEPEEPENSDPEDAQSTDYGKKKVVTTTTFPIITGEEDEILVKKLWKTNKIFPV

CN(C)c1cccc2c(S(=O)(=O)NCCCCCCCCCCC(=O)O)cccc12 [DAUDA, 11-((5-dimethylaminonaphthalene-1-sulfonyl)amino)undecanoic]
fluorescence emission enhancement and blue shift [1]: FAR-1s bind DAUDA, yielding similarly substantial increases and blue shift
fluorescence emission enhancement and blue shift [2]: rBm-FAR-1 produced a large increase in DAUDA emission and a substantial blue-shift

CC1=C(/C=C/C(C)=C/C=C/C(C)=C/CO)C(C)(C)CCC1 [all-trans retinol]
fluorescence emission enhancement [3, 6]: the proteins from both parasites bind retinol
fluorescence emission enhancement [4, 6]: Addition of retinol to either rBm-FAR-1 or rBm-FAR-2 resulted in substantial increases in fluorescence emission
fluorescence emission enhancement [5, 6]: the proteins from both parasites bind retinol

CC\C=C/C=C/C=C/C=C\CCCCCCCC(=O)O [cis-parinaric acid]
fluorescence emission enhancement ([3]; cPnA ~4 uM, excitation 319 nm): both FAR-1s and FAR-2s bind a natural, intrinsically fluorescent, fatty acid acid (cPnA)
fluorescence emission enhancement ([4]; cPnA ~4 uM, excitation 319 nm): Both rBm-FAR-1 and rBm-FAR-2 bound cPnA
fluorescence emission enhancement ([5]; cPnA ~4 uM, excitation 319 nm): both FAR-1s and FAR-2s bind a natural, intrinsically fluorescent, fatty acid acid (cPnA)
